Reference: US20120088737A2, “NOVEL ACYL GUANIDINE DERIVATIVES” (AJINOMOTO CO., INC, priority 2009, published 2012)

Legend:
[1] = molecular target: T1, NHE1 (Homo sapiens, UniProt P19634); experiment: Measurements of NHE1 inhibitory activities (HLF cells, BCECF pH recovery); assay type: cell-based; details: HLF cells (human hepatoma cell line), measured after 10 minutes; read-out: hNHE1 IC50
T1 construct: HLF cells (Human hepatoma cell line) were used as cells for the test; endogenous in cells; host or cells: HLF cells (human hepatoma cell line)
T1 sequence (P19634 whole entry): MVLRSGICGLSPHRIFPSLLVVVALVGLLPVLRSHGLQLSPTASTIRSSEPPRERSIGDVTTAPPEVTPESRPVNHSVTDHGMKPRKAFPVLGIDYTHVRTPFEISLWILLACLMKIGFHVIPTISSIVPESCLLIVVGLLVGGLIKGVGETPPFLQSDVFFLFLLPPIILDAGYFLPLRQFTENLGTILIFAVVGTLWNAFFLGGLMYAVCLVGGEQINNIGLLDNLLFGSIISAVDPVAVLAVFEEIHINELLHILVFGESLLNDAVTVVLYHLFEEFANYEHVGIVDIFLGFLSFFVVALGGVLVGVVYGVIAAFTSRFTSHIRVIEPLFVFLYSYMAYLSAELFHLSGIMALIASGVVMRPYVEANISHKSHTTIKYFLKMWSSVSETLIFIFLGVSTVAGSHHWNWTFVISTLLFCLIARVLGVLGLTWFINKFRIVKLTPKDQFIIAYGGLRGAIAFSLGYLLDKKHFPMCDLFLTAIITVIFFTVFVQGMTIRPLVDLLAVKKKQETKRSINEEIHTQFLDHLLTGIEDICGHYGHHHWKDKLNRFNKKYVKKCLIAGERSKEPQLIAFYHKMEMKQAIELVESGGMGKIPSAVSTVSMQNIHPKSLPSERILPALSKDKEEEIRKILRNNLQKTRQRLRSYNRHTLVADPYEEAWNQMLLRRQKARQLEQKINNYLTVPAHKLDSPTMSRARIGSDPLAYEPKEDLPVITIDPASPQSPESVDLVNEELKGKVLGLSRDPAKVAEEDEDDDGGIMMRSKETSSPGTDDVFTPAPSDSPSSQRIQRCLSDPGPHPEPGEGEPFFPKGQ
Experimental: Pharmacological Test Example 1: Measurements of NHE1 Inhibitory Activities
HLF cells (Human hepatoma cell line) were used as cells for the test. After 1×10^4 cells/well were seeded to a 96-well plate and cultured for 3 days, they were cultured overnight under a serum-free medium. Then, the cells were incubated in a stain solution of Tetramethylammonium (TMA) Buffer (130 mM TMA-C1, 5 mM KCl, 2 mM CaCl2, 1 mM MgSO2, 25 mM glucose, 20 mM HEPES; pH 7.4) containing 40 mM NH4Cl and 1 μg/mL pH-sensitive fluorescent indicator BCECF-AM at 37° C. for 40 minutes and then BCECF was introduced into the cells. After the cells were washed once with TMA Buffer and incubated in TMA+40 mM NH4Cl solution at 37° C. for 15 minutes, the solution was removed and 20 μL/well of TMA Buffer and 10 μL/well of each test compound solution prepared with TMA Buffer were added to each well. The measurements were carried out by adding 200 μL/well of Na Buffer (130 mM, NaCl, 5 mM KCl, 2 mM CaCl2, 1 mM MgSO2, 1 mM NaH2PO4, 25 mM glucose, 20 mM HEPES; pH 7.4) or TMA Buffer (for base measurement), immediately placing it on FlexStation (Molecular Device) and then, after 10 minutes, measuring, it the two wavelengths of 505 nm (excitation wavelength)/530 nm (emission wavelength) (measurement value) and 440 nm (excitation wavelength)/530 nm (emission wavelength) (isosbestic point value). A NHE activity was calculated by dividing a measurement value by an isosbestic point value and a NHE1 inhibitory activity was calculated by the following equation. NHE1 inhibitory activity (%)=100×(1−(Measurement value [addition of each compound]−Base [addition of TMA Buffer])/(Control [addition of Na Buffer]−Base [addition of TMA Buffer]))

[2] = molecular target: T2, human NHE3 (Homo sapiens, UniProt P48764); experiment: Improved version of measurements of NHE3 inhibitory activities (OK26 ND cell lines); assay type: cell-based; details: OK26 ND cell lines (opNHE1 expression reduced by 90%), measurement time 8 minutes at 26° C.; read-out: hNHE3 IC50
T2 construct: expressed in transfected cells; host or cells: OK26 cells (opossum kidney OK cells); OK26 ND sublines with opNHE1 reduced by 90% for A3
T2 sequence (P48764 26-834): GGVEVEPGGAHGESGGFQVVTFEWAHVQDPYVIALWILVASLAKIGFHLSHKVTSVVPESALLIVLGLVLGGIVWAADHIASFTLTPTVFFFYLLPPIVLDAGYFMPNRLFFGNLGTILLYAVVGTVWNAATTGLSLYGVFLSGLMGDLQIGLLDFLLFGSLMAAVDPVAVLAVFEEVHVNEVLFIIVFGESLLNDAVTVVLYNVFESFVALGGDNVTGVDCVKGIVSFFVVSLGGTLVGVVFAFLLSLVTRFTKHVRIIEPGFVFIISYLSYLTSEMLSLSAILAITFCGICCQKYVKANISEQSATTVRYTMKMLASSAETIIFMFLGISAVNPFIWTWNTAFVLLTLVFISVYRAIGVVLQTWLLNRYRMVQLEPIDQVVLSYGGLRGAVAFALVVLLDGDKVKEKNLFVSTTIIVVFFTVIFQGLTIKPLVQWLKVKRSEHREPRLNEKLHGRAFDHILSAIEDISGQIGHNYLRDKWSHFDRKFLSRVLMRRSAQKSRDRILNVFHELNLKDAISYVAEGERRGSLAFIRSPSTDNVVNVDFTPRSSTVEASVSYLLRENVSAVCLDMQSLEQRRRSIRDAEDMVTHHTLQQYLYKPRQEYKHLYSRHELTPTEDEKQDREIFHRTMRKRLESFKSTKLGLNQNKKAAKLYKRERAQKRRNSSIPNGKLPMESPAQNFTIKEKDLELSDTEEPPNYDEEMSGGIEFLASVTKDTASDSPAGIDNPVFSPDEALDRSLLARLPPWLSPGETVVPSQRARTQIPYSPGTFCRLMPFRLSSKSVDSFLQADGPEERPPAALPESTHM
Experimental: Pharmacological Test Example 3: Improved Version of Measurements of NHE3 Inhibitory Activities
OK26 cells express endogeneous NHE1 (opNHE1). In order to evaluate NHE3 inhibitory activities more precisely, OK26 ND cell lines in which the expression level of opNHE1 is reduced by 90% were established. Measurements of NEE inhibitory activities were carried out by using the established cell lines in the same manner as described in Pharmacological Test Example 1 except that the measurement time was 8 minutes (at 26° C.) to calculate more precise NHE3 inhibitory activities.

| Structure (SMILES) | IC50 [1] [nM] | IC50 [2] [nM] |
| --- | --- | --- |
| C/C(=C\c1ccc(C(F)(F)F)cc1-c1ccc(O)cc1)C(=O)NC(=N)N [Example 81, N-[(E)-3-(4′-hydroxy-5-trifluoromethyl-biphenyl-2-yl)-2-methyl-acryloyl]-guanidine] | 5200 | 630 |
| C/C(=C\c1ccc(-c2ccc(O)cc2C)cc1C)C(=O)NC(=N)N [Example 96, N-[(E)-3-(4′-hydroxy-3,2′-dimethyl-biphenyl-4-yl)-2-methyl-acryloyl]-guanidine] |  | 200 |
| COc1cc(-c2ccc(/C=C(\C)C(=O)NC(=N)N)c(-c3ccc(O)c(OC)c3)c2)ccc1O [Example 78, N-[(E)-3-(2,4-di(3-methoxy-4-hydroxyphenyl)-phenyl)-2-methyl-acryloyl]-guanidine] | 3300 | 150 |
| C/C(=C\c1ccc(C)cc1-c1ccc(O)c(F)c1)C(=O)NC(=N)N [Example 62, N-[(E)-3-(3′-fluoro-4′-hydroxy-5-methylbiphenyl-2-yl)-2-methyl-acryloyl]-guanidine] | 1300 | 92 |
| C/C(=C\c1ccc(-c2ccoc2)cc1)C(=O)NC(=N)N [Example 85, N-[(E)-3-(4-furan-3-yl-phenyl)-2-methyl-acryloyl]-guanidine] |  | 470 |
| C/C(=C\c1ccc(-c2ccc(O)cc2C)cc1)C(=O)NC(=N)N [Example 90, N-[(E)-3-(4′-hydroxy-2′-methyl-biphenyl-4-yl)-2-methyl-acryloyl]-guanidine] |  | 300 |
| C/C(=C\c1ccc(-c2cc(C)c(O)c(C)c2)cc1-c1cc(C)c(O)c(C)c1)C(=O)NC(=N)N [Example 75, N-[(E)-3-(2,4-di(3,5-dimethyl-4-hydroxyphenyl)-phenyl)-2-methyl-acryloyl]-guanidine] | 1800 | 100 |
| C/C(=C\c1ccc(-c2ccc(O)c(O)c2)cc1)C(=O)NC(=N)N [Example 92, N-[(E)-3-(3′,4′-dihydroxy-biphenyl-4-yl)-2-methyl-acryloyl]-guanidine] |  | 150 |
| C/C(=C\c1cccc(C)c1-c1cccc(O)c1)C(=O)NC(=N)N [Example 68, N-[(E)-3-(3′-hydroxy-6-methyl-biphenyl-2-yl)-2-methyl-acryloyl]-guanidine] | 1700 | 120 |
| C/C(=C\c1ccc(-c2ccc(CO)cc2)cc1)C(=O)NC(=N)N [Example 93] |  | 250 |
| C/C(=C\c1ccccc1-c1ccc(C(=N)N)cc1C)C(=O)NC(=N)N [Example 57, (E)-2′-(3-guanidino-2-methyl-3-oxo-propenyl)-2-methyl-biphenyl-4-carboxamidine] | 1100 | 100 |
| C/C(=C\c1ccc(-c2ccc(F)c(O)c2)cc1-c1ccc(F)c(O)c1)C(=O)NC(=N)N [Example 76, N-[(E)-3-(2,4-di(3-hydroxy-4-fluorophenyl)-phenyl)-2-methyl-acryloyl]-guanidine] | 1100 | 400 |
| C/C(=C\c1cccc(C)c1-c1ccc(O)cc1)C(=O)NC(=N)N [Example 67, N-[(E)-3-(4′-hydroxy-6-methyl-biphenyl-2-yl)-2-methyl-acryloyl]-guanidine] | 2100 | 120 |
| C/C(=C\c1ccc(-c2cc(O)ccc2F)cc1)C(=O)NC(=N)N [Example 91, N-[(E)-3-(2′-fluoro-5′-hydroxy-biphenyl-4-yl)-2-methyl-acryloyl]-guanidine] |  | 190 |
| C/C(=C\c1ccccc1-c1ccc(C(=N)N)cc1)C(=O)NC(=N)N [Example 56, (E)-2′-(3-guanidino-2-methyl-3-oxo-propenyl)-biphenyl-4-carboxamidine] | 3400 | 400 |
| C/C(=C\c1ccccc1-c1ccc(O)cc1F)C(=O)NC(=N)N [Example 59, N-[(E)-3-(2′-fluoro-4′-hydroxy-biphenyl-2-yl)-2-methyl-acryloyl]-guanidine] | 3200 | 280 |
| C/C(=C\c1ccccc1-c1cscc1C)C(=O)NC(=N)N [Example 83, N-{(E)-2-methyl-3-[2-(4-methyl-thiophene-3-yl)-phenyl]-acryloyl}-guanidine] | 2200 | 540 |
| C/C(=C\c1ccc(-c2ccc(O)cc2)cc1N1CCOCC1)C(=O)NC(=N)N [Example 94, N-[(E)-3-(4′-hydroxy-3-morpholine-4-yl-biphenyl-4-yl)-2-methyl-acryloyl]-guanidine] | 2100 | 320 |
| C/C(=C\c1c(-c2ccc(O)cc2)cccc1-c1ccc(O)cc1)C(=O)NC(=N)N [Example 80, N-[(E)-3-(4,4″-dihydroxy-[1,1′;3′,1″]terphenyl-2′-yl)-2-methyl-acryloyl]-guanidine] | 7700 | 200 |
| COc1cc(-c2cc(C)ccc2/C=C(\C)C(=O)NC(=N)N)ccc1O [Example 66, N-[(E)-3-(4′-hydroxy-3′-methoxy-5-methyl-biphenyl-2-yl)-2-methyl-acryloyl]-guanidine] |  | 130 |
| COc1ccc(/C=C(\C)C(=O)NC(=N)N)c(-c2ccc(O)cc2)c1 [Example 73, N-[(E)-3-(4′-hydroxy-5-methoxy-biphenyl-2-yl)-2-methyl-acryloyl]-guanidine] |  | 120 |
| C/C(=C\c1ccc(C)cc1-c1ccc(C(=N)N)c(F)c1)C(=O)NC(=N)N [Example 79, (E)-3-fluoro-2′-(3-guanidino-2-methyl-3-oxo-propenyl)-5′-methyl-biphenyl-4-carboxamidine] | 5200 | 700 |
| C/C(=C\c1ccc(C)cc1-c1ccc(F)c(O)c1)C(=O)NC(=N)N [Example 63, N-[(E)-3-(4′-fluoro-3′-hydroxy-5-methyl-biphenyl-2-yl)-2-methyl-acryloyl]-guanidine] | 9900 | 330 |
| COc1cc(-c2ccccc2/C=C(\C)C(=O)NC(=N)N)ccc1O [Example 23, N-[(E)-3-(4′-hydroxy-3′-methoxy-biphenyl-2-yl)-2-methyl-acryloyl]guanidine] | 2600 | 610 |
| COc1ccc(-c2cc(C)ccc2/C=C(\C)C(=O)NC(=N)N)cc1O [Example 74, N-[(E)-3-(3′-hydroxy-4′-methoxy-5-methyl-biphenyl-2-yl)-2-methyl-acryloyl]-guanidine] | 1400 | 200 |
| C/C(=C\c1c(Br)cccc1-c1ccc(O)cc1)C(=O)NC(=N)N [Example 70, N-[(E)-3-(3-bromo-4′-hydroxy-biphenyl-2-yl)-2-methyl-acryloyl]-guanidine] |  | 960 |
| C/C(=C\c1ccccc1-c1ccc(CO)cc1)C(=O)NC(=N)N [Example 6, N-[(E)-3-(4′-hydroxymethyl-biphenyl-2-yl)-2-methyl-acryloyl]-guanidine] |  | 400 |
| C/C(=C\c1ccc(-c2ccc(O)cc2)cc1C)C(=O)NC(=N)N [Example 95, N-[(E)-3-(4′-hydroxy-3-methyl-biphenyl-4-yl)-2-methyl-acryloyl]-guanidine] |  | 240 |
